Patent US20260286322A1, “PROTEIN TYROSINE P[…] DOMAIN PEPTIDE DIMER FOR NERVOUS SYSTEM REPAIR” (NervGen Pharma Corp., priority 2023, published 2026)

Tests used:
SCI rats [1] = test: BBB sub-score (toe clearance, paw position, trunk stability, tail position) in SCI rats; type: in vivo, rat
Procedure: Animals were prepared according to the methods described above in Example 3.
Lyophilized Compound 8 and Compound 4 were separately dissolved in saline and injected s.c. at a volume of 500 μl to animal once daily from day 1-day 49 post spinal cord injury.
The target dose concentration was 0.8 mg/ml. After reconstitutions, the solutions were aliquoted and kept at −20° C. until dosing.
12-13 rats were used in each of the following three groups: • 1) Control group: SCI+saline alone • 2) Testing group: SCI+Compound 4 in saline • 3) Testing group: SCI+Compound 8 in saline.
Spinal cord injury (SCI) was introduced to the animals and post-operative care was provided to the animals according to the methods described in Example 3.
The BBB sub-scores quantify the recovery of toe clearance, paw position, trunk stability and tail use independent of forelimb-hindlimb coordination. BBB sub-scores were calculated using the observations recorded in the BBB records sheets. During BBB testing, the predominant position of the hind paws (parallel vs rotated), toe clearance, trunk stability and tail position (up, down, middle) were evaluated for animals reaching a BBB score of 10 or higher. Animals scoring less than 10 in BBB scale were considered to have BBB sub-score of “0”.
As described above in Example 3, the upper points on the BBB scale (14-21) quantify fine motor movements associated with hind limb locomotor including toe clearance, predominant paw position, trunk stability, and tail position. These fine motor movements are only considered if animals display consistent coordination. A BBB sub-score was applied to quantify these improvements independent of coordination.
FIG. 8B depicts violin plots presenting distributions of the weekly average BBB sub-scores in the saline alone, Compound 4, and Compound 8 treatment cohorts of SCI rats. Each data point represents a weekly average BBB sub-score in the saline alone (control), Compound 4, and Compound 8 treatment cohorts as annotated on the X-axis. The numbers adjacent to the data points indicate the numbers of days post-SCI at which individual and treatment cohort weekly average BBB sub-scores were calculated. Statistical comparison of the treatment effects was performed using Friedman's test (repeated measures ANOVA for nonparametric values) with Dunn's correction for multiple comparisons and p-value of less than 0.05 defined as the criterion of statistical significance.

SCI rats [2] = test: Percentage of SCI rats reaching predefined BBB and/or bladder score thresholds at end of study; type: in vivo, rat
Description: In this study, the effects of Compound 8 in improving the recovery of open field locomotor performance and bladder function in the SCI rats were further evaluated in comparison with Compound 4 by assessing the BBB scores and bladder scores according to the methods described in Example 3.
In this assessment, 12-13 rats were included in each of the following groups (1) Control group 1: SCI+saline alone; (2) Control group 2: SCI+Compound 4 in saline; (3) Testing group: SCI+Compound 8. The treatment was started on day 1 post-injury and continued through (last dose administered on) day 49 post-injury. The post-treatment observation period commenced on day 50 post-injury and continued until the end of study on day 84 post-injury.
At the end of the study, the performance of Compound 8 was evaluated in comparison with Compound 4 and saline alone by calculating the percentages of animals achieving predefined thresholds of functional improvement in the following categories: (i) Simultaneous improvement in BBB and bladder scores, (ii) Improvement in the locomotor function (BBB score) alone but not the in the bladder score, (iii) Improvement in the bladder score alone but not in the BBB score. FIG. 16 depicts the percentage of rats in each of these three categories, as annotated on the X-axis. An additional group (annotated as “Combined”) represents the combined percentage of rats achieving improvement in any of the first three categories for each treatment cohort (saline alone, Compound 4, and Compound 8). […]

TAT-Cys-rodent PTPRS wedge domain homodimer [Compound 8]
sustained trend of continued functional improvement in BBB sub-score (SCI rats [1]; FIG. 8A): apparent | effect on weekly average BBB sub-score vs saline alone (SCI rats [1]; Friedman's test, Dunn's correction, p=0.0008 Compound 8, p>0.9999 Compound 4): statistically significant effect | effect on weekly average BBB sub-score vs Compound 4 (SCI rats [1]; Friedman's test, Dunn's correction, p=0.0201): statistically significant effect | functional improvement (BBB sub-score achievers) after discontinuation of administration (SCI rats [1]; after day 49): continued functional improvement | onset of functional improvement in BBB sub-score (SCI rats [1]; day post-SCI, 0.8 mg/ml, 500 μl s.c. once daily day 1-49): 21 days | percentage of rats achieving BBB sub-score of 1 or better, compared with Compound 4 or saline alone groups (SCI rats [1]; each time point post-SCI, e.g. day 28, 42, 63, 70, 77, 84): higher | percentage of rats reaching BBB score of 11 alone (SCI rats [2]; end of study): about 8% | percentage of rats with BBB score of 11 and bladder score of 2 or less simultaneously (SCI rats [2]; end of study): about 40% | percentage of rats with BBB score of at least 10 and bladder score of 2 or less simultaneously (SCI rats [2]; end of study (day 84)): ~50% | percentage of rats with improvement in the BBB score only (at least 10, no bladder score improvement) (SCI rats [2]; end of study (day 84)): about 15% | percentage of rats with improvement in bladder-only scores (2 or less, no BBB improvement) (SCI rats [2]; end of study (day 84), BBB threshold 10): about 8% | combined rate of functional improvement (simultaneous, BBB only and bladder only combined) (SCI rats [2]; end of study (day 84), thresholds BBB at least 10, bladder 2 or less): about 70% | combined rate of functional improvement (BBB 11 only, bladder 2 or lower only, and both) (SCI rats [2]; end of study, thresholds BBB 11, bladder 2 or lower): about 60%
